Data set [1] relates to MCF-7 cells. In words: MTT assay, MCF-7. The conditions noted are these: for Activity in MTT assay (in words), MCF-7: 72 h; for IC50: Homo sapiens, MCF7, 72 h, estrogen dependent breast adenocarcinoma, read-out: Cytotoxic activity IC50, MCF-7. The data set is classed as cell-based, human. How it is done: (§1) The cell lines used in the cytotoxicity study, besides MCF-12A, were purchased from European Collection of Cell Culture (ECACC, Salisbury, UK): HEK293 (human embryonic kidney, ATTC no. CRL-1573), A549 (Human lung carcinoma, ECACC no. 86012804), CCD39Lu (Human lung fibroblasts, ECACC no. 90110512), MCF-7 (Human breast adenocarcinoma, ECACC no. 86012803) and MDA-MB-231 (Human breast adenocarcinoma ECACC no. 92020424). Cell lines were cultured in DMEM medium without phenol red and supplemented with 10% (v/v) FBS, 1% penicillin-streptomycin and 1% L-glutamine. MCF-12A (ATTC no. […]) was purchased from American Type Culture Collection (ATCC Manassas, VA 20110 USA). MCF-12A cells were kept in 1:1 mixture of Dulbecco’s modified Eagle’s medium and Ham’s F12 medium, 20 ng/ml human epidermal growth factor, 100 ng/ml cholera toxin, 0.01 mg/ml bovine insulin, 500 ng/ml hydrocortisone and 5% horse serum. All cell lines were cultured at 37°C, in a humidified atmosphere containing 5% CO2.
(§2) Compounds were dissolved in DMSO to the final concentration of […]. A549, CCD39Lu, MCF-7, MDA-MB-231 and MCF-12A cells were seeded in 96 wells plates at density 2x10^4 cells/well and incubated overnight as described above. Subsequently, cells were treated with tested compounds at concentrations: 100 μM; 50 μM; 25μM; 12.5μM; 6 μM; 3 μM; 1.5 μM. […] Cells were incubated 72 h at 37°C in a humidified atmosphere containing 5% CO2 in the cell culture media appropriate for each cell line. Then, the medium was aspirated and 170 μl MTT solution (5mg/ml) was added to each well. Plates were incubated for 2 hours at 37°C, and then plates were centrifuged at 1200 rpm for 3 minutes. The formazan crystals were dissolved in 200 μl DMSO and plates were further agitated on a plate shaker at 300–500 rpm for 10 minutes. Absorbance at 570 nm (with reference wavelenght 650 nm) was measured using a plate reader (Biotek Instruments, Elx-800). Cell viability was calculated as a percentage relative to the control.

Data set [2] in a line: MTT assay, MCF-12A. The conditions noted are these: human, MCF-12A cells (non-tumorigenic breast epithelial), read-out: Cytotoxic activity IC50, MCF-12A. The data set is classed as cell-based. How it is done: as §1, §2
(Formazan colour is commonly taken as a measure of viable cells.)

For data set [3], the system named is MCF-7 cells. The data set can be described thus: LDH release assay, MCF-7. It is filed as cell-based, human. The conditions noted are these: 72 h, Fig 2. How it is done:
Cytotoxicity was evaluated by measuring the cell membrane permeability, using a LDH assay kit purchased from Cayman Chemical (Ann Arbor USA). The LDH assay was performed for MCF-7 and MDA-MB-231 cells (seeded at 2×10^4 density). As a positive control cell permeabilization with 1%Triton X-100 was used. The assay was performed 72h after start the incubation. Briefly, the plates were centrifuged at 400 ×g for 5 minutes, and 100 μL of supernatant were transferred from each well to the new 96-well plate and analyzed according to the manufacturer’s protocol. 100 μL of reaction mixture, containing lactic acid, NAD^+, tetrazolium salt and diaphorase, was added to each well. Plates were incubated on an orbital shaker for 30 minutes at room temperature and the absorbance at 490 nm was measured with a plate reader (Biotek Instruments, Elx-800). Results were expressed as a percentage of the total value of the positive control.

Data set [4] has as its target T1, human ERα receptor (Homo sapiens, UniProt P03372).
T1 construct: host or cells: HEK293
T1 sequence (P03372 1-595): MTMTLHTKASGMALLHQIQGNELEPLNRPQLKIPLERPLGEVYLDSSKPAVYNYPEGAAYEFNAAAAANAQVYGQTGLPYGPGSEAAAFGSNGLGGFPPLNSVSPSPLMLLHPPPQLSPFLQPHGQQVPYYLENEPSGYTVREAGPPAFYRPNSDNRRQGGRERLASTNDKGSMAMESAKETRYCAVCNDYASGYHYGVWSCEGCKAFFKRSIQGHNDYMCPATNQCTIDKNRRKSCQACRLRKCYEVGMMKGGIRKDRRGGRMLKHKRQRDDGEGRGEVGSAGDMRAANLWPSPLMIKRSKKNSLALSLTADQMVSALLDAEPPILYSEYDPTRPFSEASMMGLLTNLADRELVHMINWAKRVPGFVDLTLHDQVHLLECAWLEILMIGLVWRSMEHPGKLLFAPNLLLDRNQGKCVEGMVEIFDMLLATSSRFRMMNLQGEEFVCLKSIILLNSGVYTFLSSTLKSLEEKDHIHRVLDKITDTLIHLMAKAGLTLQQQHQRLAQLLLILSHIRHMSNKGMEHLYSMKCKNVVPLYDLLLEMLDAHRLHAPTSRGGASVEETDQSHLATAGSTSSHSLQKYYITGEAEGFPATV
In words: Estrogen Receptor luciferase assay in HEK293 cells transfected with ERα. It is filed as cell-based. The conditions noted are these: HEK293 transfected with ERα and luciferase reporter, compared with estradiol, Fig 3A/3B. From the text: (§3) To obtain a eukaryotic vector expressing only the ER-α nuclear receptor, a construct was designed by cloning a KpnI-BamHI fragment from plasmid pEGFP-C1-ERα containing the ERα coding sequence that includes a stop signal into the pEGFP-N3 plasmid (Clontech Laboratories, Palo Alto, CA) under the control of the CMV promoter. This construction was termed pEGFP-N-ERα, and although it encoded both human ERα receptor and GFP protein, only the former is expressed. For mock transfections, pEGFP-N3 plasmid was digested with BglII and NotI and religated after polishing DNA ends to remove GFP coding sequence. Plasmid sequence was confirmed by automatic sequencing. Prior to transfection, cells were seeded in 48 well plates at density of 1.5 x 10^4 cells/well and incubated for 24 h to reach a cell confluence of 80–90%. […] MCF-7 cells, which endogenously express ERα receptor, were transfected with p3xERRE/ERE-luciferase plus the pRLTK Renilla luciferase control plasmid (95:5). Firefly and Renilla luciferase activities were measured using the Dual Luciferase Assay System (Promega, Madison, WI, USA), following a standard protocol using a Sirius L luminometer (Berthold Technologies, Bad Wildbad, Germany). Data were expressed as relative changes in luciferase activity and normalized to 100%.
(Reporter assays use an easily measured gene product as a stand-in for the process of interest.)

Data set [5] is described as follows: MTT assay, CCD39Lu. The conditions noted are these: human, CCD39Lu cells (non-tumorigenic lung fibroblasts), read-out: Cytotoxic activity IC50, CCD39Lu. The data set is classed as cell-based. The procedure:
as §1, §2

In data set [6] the test system is A549 cells. The data set can be described thus: MTT assay, A549. It is filed as cell-based. The conditions noted are these: Homo sapiens, 72 h, lung adenocarcinoma, read-out: Cytotoxic activity IC50, A549. How it is done: as §1, §2
Data set [7] deals with MDA-MB-231 cells. In words: MTT assay, MDA-MB-231. The data set is classed as cell-based, human. The conditions noted are these: Homo sapiens, MDA-MB-231, 72 h, estrogen independent breast adenocarcinoma, read-out: Cytotoxic activity IC50, MDA-MB-231. The procedure:
as §1, §2

Data set [8] has as its system MCF-7 cells. In words: Sulphorodamine B assay, MCF-7. It is filed as cell-based, human. The conditions noted are these: 72 h, Fig 2. How it is done: In addition to the MTT assay, cell viability was measured by the Sulphorodamine B assay according to Vichai and Kirtikara. The MCF-7 and MDA-MB-23 cells were seeded and treated as for the MTT assay. After incubation the medium was removed and the cells were fixed with cold (4°C) trichloroacetic acid (final concentration 10%) for 1h. Than plates were washed 4 times with water and stained for 30 min, following by staining with sulforhodamine B (SRB) 0.4% in 1% acetic acid solution at room temperature for 20 min. After staining, the SRB solution was removed and the plates washed 5 times with 1% acetic acid dried. Bound SRB was solubilized with 200 μl 10 mM unbuffered Tris-base solution and plates were shaked for 10 min. The absorbance at 510 nm was measured using a plate reader (Biotek Instruments, Elx-800).

Data set [9] addresses T2, estrogen receptor (Homo sapiens, UniProt P03372).
T2 construct: MCF-7 cells, which endogenously express ERα receptor; endogenous in cells; host or cells: MCF-7
T2 sequence (P03372 1-595): T1 sequence (P03372 1-595)
The data set can be described thus: Estrogen Receptor luciferase assay in MCF-7 cells (endogenous ER). It is filed as cell-based. The conditions noted are these: MCF-7 transfected with p3xERRE/ERE-luciferase, Fig 3C.
From the text: as §3

Entries after “also recorded” stand apart in the source; their conditions may differ.

One may read the IC50 as the concentration that gives 50% inhibition. With `COc1ccc(NC(=S)c2cccc(NC(=S)c3ccc(OC)cc3)c2)cc1` [Compound 15], the “Activity in MTT assay (in words), MCF-7” value in data set [1] is on record as “significant activity; also recorded: strong effect”. Also, the IC50 in data set [1] was 17.7 µM; in data set [6], greater than 100 µM; in data set [7] it was greater than 100 µM. The IC50 at 72 h in data set [2] and in data set [5] was greater than 100 µM each time. In addition, the “LDH release, MCF-7” value in data set [3] is recorded as “relatively low increase”. Further, the “ER dependent transcriptional activity” value in data set [4] is “capable to mediate ER dependent transcriptional activity in a similar mode than estradiol”. Also, the “Effect in SRB assay, MCF-7” value in [8] was “strong effect”.

For the molecule `COc1cc(NC(=O)c2cc(C)c(C)cc2[N+](=O)[O-])cc(OC)c1OC` [Compound 6], in data set [1], the “Activity in MTT assay (in words), MCF-7” value was “significant activity”. In addition, the figures for the IC50 in [1], in [6] and in data set [7] were 24.7 µM, greater than 100 µM and greater than 100 µM, respectively. For the same molecule, the IC50 at 72 h in [2] and in data set [5] was greater than 100 µM in each case. Further, in data set [9], the “Transcriptional (luciferase) activity in MCF-7” value is given as “much lower”. Besides, in [4], the “ER dependent transcriptional activity” value is given as “capable to mediate ER dependent transcriptional activity in a similar mode than estradiol”.
